Data on two compounds can be found in patent publication US11090293B2 (Ovid Therapeutics Inc., priority 2018, dated 2021).

Read-outs that look alike come from different tables or passages of the source.

For series [1] the following is noted: human, in vivo, po.
The conditions of series [2]: human, in vivo.

For the compound `CCN(CC)CCN1C(=O)CN=C(c2ccccc2F)c2cc(Cl)ccc21` [Flurazepam], in series [1], the “residual effect on Choice Reaction Time and Critical Flicker Fusion” value is “showed significant effect”.
In the case of `Oc1noc2c1CCNC2` [gaboxadol, 4,5,6,7-tetrahydroisoxazolo [5,4-c]pyridine-3-ol], the “residual effect on Choice Reaction Time and Critical Flicker Fusion” value in series [1] is given as “did not show residual effect”. Further, the CLR in series [2] (both, iv, 10 mg) turned out to be 208 mL/min; in series [2] (both, po, 2.5 mg) it was 196 mL/min; in series [2] (both, po, 5 mg), 222 mL/min; in series [2] (both, po, 15 mg), 234 mL/min; in series [2] (both, po, 20 mg), 265 mL/min. The “half-life (t½)” value in series [2] (both, po) was 1.5 h. Moreover, the “AUC0-∞” value in series [2] (both, po, 5 mg) was determined as 171 ng·h/mL; in series [2] (both, po, 10 mg), 346 ng·h/mL; in series [2] (both, po, 15 mg), 539 ng·h/mL; in series [2] (both, po, 20 mg), 669 ng·h/mL. Also, the “CL/F (CL for 10 mg IV)” value in series [2] (iv, 10 mg) was 438 mL/min. The “Slope (90% CI) of AUC0-∞, dose proportionality assessment” value in series [2] (po) is 0.98 (0.95, 1.01).
